Details of experiment [1]: method as in PMID 31657152. The settings on record: single dose; cited from earlier work.
In experiment [2] the test system is mice. Kind of experiment: Learned helplessness paradigm in mice. In kind it is in vivo, ICR mice. The settings on record: sub‐chronic (4 days), 10 mg/kg ig., after inescapable shock training. As to the method: For 4 consecutive days, mice were putted into the shuttle box device (40 × 10 × 13 cm), the device was splited into two compartments, and mice could free access. In the IS group, each mouse received 360 inescapable shocks (current intensity 0.30 mA, duration 2 s, 3‐13 s variable interval, about 1 h) over four consecutive training days. Animals in the NIS group underwent the same handling without receiving the foot shocks. 10 trials were conducted on mice to screen helpless, each of which includes conditioned stimulation period (3‐s lamp on), non‐conditioned stimulation period (3‐s lamp +shock), and interval period (without any stimulus, 25 s). […] The EF values were balanced for each group in the experiment. Using Graphic State software (Coulbourn Instruments Inc.,) recorded the number of escape failures and the latency to escape.

The target of another experiment is T1, MT1 receptor (Homo sapiens, UniProt P48039).
T1 construct: purchased Perkin‐Elmer ES‐620
T1 sequence (P48039 whole entry): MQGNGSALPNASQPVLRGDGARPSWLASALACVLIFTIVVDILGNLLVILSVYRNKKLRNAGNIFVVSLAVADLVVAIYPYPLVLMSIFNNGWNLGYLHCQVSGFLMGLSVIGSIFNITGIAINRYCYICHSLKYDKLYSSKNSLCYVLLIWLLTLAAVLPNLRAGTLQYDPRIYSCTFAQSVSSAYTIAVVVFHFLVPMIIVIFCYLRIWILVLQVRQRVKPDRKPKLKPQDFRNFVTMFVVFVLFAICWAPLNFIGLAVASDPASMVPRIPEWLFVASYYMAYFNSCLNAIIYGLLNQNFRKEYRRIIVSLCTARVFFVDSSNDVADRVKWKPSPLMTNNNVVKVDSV
The experiment in a line: [35S]‐GTPγS binding assay, MT1. In kind it is biochemical. The settings on record: [35S]‐GTPγS binding; read-out: maximal increase over basal binding (% Emax), MT1 receptor. The method, then:
(§1) This experiment was mentioned earlier. ^27 In short, HEK293 cell membrane stably expressing human 5‐HT2C receptors or rat hippocampal tissue membrane or MT1/MT2 receptors was re‐suspended in buffer (50 mmol/L Tris, 100 mmol/L NaCl, 5 mmol/L MgCl2·6H2O, 0.1 mmol/L EDTA‐Na2·6H2O, 0.2 mmol/L EGTA, pH 7.4) and incubated with the test compound (100 μM GDP, 0.2 nM [^35S]‐GTP, or [^3H]PIP) for 60 min at 28℃. At the end of the experiment, Whatman GF/C filters pre‐soaked with distilled water were used for rapid filtration followed by washing with 5 ml of ice‐cold Tris buffer. Determination of non‐specific binding in the presence of GTPγS and radioactivity was measured by liquid scintillation counting. Calculation of the concentration produces a half‐maximal effect (EC50) and the maximal increase above the baseline value.
For orientation: GTPγS is a poorly hydrolysed GTP analogue; its binding reports G protein activation.

The target in a further experiment is T2, 5‐HT2C receptor (Rattus norvegicus, UniProt P08909).
T2 construct: 5‐HT2C receptor membrane protein was extracted from rat hippocampus and a stably transfected HEK293 cell line; from tissue; host or cells: rat hippocampus
T2 sequence (P08909 33-460): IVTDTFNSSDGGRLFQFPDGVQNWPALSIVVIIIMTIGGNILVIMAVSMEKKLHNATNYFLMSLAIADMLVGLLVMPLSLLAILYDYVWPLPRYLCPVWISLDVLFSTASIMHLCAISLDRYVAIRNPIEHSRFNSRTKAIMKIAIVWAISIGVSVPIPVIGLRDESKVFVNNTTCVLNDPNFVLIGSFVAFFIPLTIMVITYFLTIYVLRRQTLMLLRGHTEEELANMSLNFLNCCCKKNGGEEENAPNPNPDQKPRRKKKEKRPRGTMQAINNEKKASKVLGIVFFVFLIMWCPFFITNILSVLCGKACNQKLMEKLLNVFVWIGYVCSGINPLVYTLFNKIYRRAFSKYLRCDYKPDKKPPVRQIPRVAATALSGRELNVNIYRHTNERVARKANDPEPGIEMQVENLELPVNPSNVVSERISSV
The experiment in a line: 5‐HT2C receptor binding assay ([3H]‐LSD competition). The settings on record: mean ± SEM, three independent experiments. As to the method:
Hippocampal membrane preparations were obtained using previously described methods. ^24 , ^25 , ^26 Briefly, rats were decapitated and their brains were rapidly removed. Next, the hippocampus was dissected and subsequently homogenized in 40 volumes of ice‐cold buffer (50 mM Tris‐HCl Buffer, pH 7.4) and then centrifuged at 40,000 × g at 4°C for 10 min. The particles were re‐suspended and centrifuged again. In order to remove endogenous monoamines, the final suspension was incubated at 37°C for 20 min and then centrifuged as usual. The final pellets were frozen at −80°C at once for up to 1 week.
Human MT1/MT2 receptor membrane proteins were obtained from Perkin‐Elmer (ES‐620 [MT1] and ES‐621 [MT2]). The stably transfected 5‐HT2C receptor HEK293 cell line was prepared using a nucleus‐cytoplasm‐membrane preparation kit (Applagin Technologies Inc.). Briefly, cells were harvested at 4°C, 110 00 × g and centrifugation for 5 min. Homogenize pellets in the assay buffer (50 mM Tris‐HCl buffer containing 120 mM NaCl and 5 mM KCl, pH 7.4) and then centrifuged twice at 4°C, 36,000 × g for 15 min. […]
Receptor membrane protein, 5‐HT2C (50 μl), was added to all the tubes. Non‐specific binding was determined by the presence of unlabeled 10 μM 5‐HT and pre‐reacted for 30 min. […] Finally, 1 ml of scintillation fluid was added and the radioactive intensity measured by liquid scintillation counting.

The next experiment has as its target T3, MT2 receptor (Homo sapiens, UniProt P49286).
T3 construct: purchased Perkin‐Elmer ES‐621
T3 sequence (P49286 1-362): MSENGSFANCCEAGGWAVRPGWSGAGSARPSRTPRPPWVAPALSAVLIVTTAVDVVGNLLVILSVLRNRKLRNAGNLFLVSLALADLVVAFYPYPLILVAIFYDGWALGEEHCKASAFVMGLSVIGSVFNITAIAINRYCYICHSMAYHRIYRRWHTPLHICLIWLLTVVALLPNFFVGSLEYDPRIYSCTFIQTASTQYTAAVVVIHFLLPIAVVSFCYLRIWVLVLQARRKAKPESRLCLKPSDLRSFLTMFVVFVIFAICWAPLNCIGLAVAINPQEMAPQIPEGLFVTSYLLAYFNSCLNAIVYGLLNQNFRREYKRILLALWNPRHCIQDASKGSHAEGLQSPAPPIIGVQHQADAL
Kind of experiment: [35S]‐GTPγS binding assay, MT2. It is filed as biochemical. The settings on record: [35S]‐GTPγS binding; read-out: maximal increase over basal binding (% Emax), MT2 receptor. The method, then:
as §1

The test system of the next experiment is rats. The experiment in a line: Forced swimming test in rats. The settings on record: oral, 40 mg/kg. In kind it is in vivo, Sprague Dawley (SD) rats. As to the method: The forced swimming test (FST) was conducted as described earlier. ^30 Eighty naive rats were randomized into eight treatment groups (n = 9‐12/group). All rats received a single drug administration (p.o.). The procedure consisted of two sessions, to be specific, a pre‐test session and a test session. A cylindrical container (diameter, 20 cm; height, 40 cm; including 30 cm of water and kept at 25℃) was used. During the pre‐test phase, rats were required to perform forced swimming for 15 min. The test session was performed 24 h later, put the rats in the same cylindrical container for 5 min and immobility duration over 5 min recorded. […] Rats were considered immobile when they entered a floating posture, specifically, immobile, passive, and with their heads above water.

Experiment [3] deals with mice. The experiment in a line: Tail suspension test in mice. It is filed as in vivo, ICR mice. The settings on record: oral, 10, 20 or 40 mg/kg, vs. vehicle. The method, then:
The tail suspension test (TST) was conducted as described earlier. ^28 , ^29 Eighty naive mice were randomly divided into eight treatment groups (n = 10/group). All mice received a single dose of the drug (p.o.). After 60 min of gavage administration, mice were suspended from the top of the apparatus (25 × 25 × 35 cm) using tape about 1 cm from the tail tip. The duration of immobility was recorded in the last 4 min for a total of 6 min. When mice are passively suspended immobile, they are judged to be stationary.

A further experiment deals with CUS rats. Kind of experiment: Novelty‐suppressed feeding test in the CUS model. It is filed as in vivo. The settings on record: chronic, 10 mg/kg. As to the method:
In order to further examine the antidepressant effects of GW117, chronic unpredictable stress (CUS) model was utilized; the methods were as described before. ^29 , ^31 After 1 week of training, rats underwent sucrose training of 48 h. After training, a sucrose baseline test was performed. […] Gastric gavage was given 1 h before the stress (08:00–09:00). Except for the non‐stressed group, all rats were stimulated by a series of stressors. stress methods included the following: fast on food and water (24 h), moisture cage (150 g sawdust bedding in 200 ml water), overnight illumination, low‐intensity strobe illumination (100 flashes/min), forced swimming (5 min at 10℃), white noise (110 dB), tail pinch (1 cm from tail root, 6 min), 45℃ cage tilt, and restraint (1–2 h). Stressors need to be used continuously and randomly. Non‐stressed rats received free food and water, but were required to fast for 14 h before sucrose preference test. After 4 weeks of stress, the sucrose preference test (SPT) (on day 25), open field test (OFT) (on day 28), and novelty‐suppressed feeding (NSF) test (on day 29) were carried out. […]

In the case of `CNC1(c2ccccc2Cl)CCCCC1=O` (stereo not drawn) [ketamine], in experiment [1], the “duration of rapid antidepressant response” value is “at least three” and the “mean onset time of rapid antidepressant response” value was “four”.

Regarding `CNCCC(Oc1ccc(C(F)(F)F)cc1)c1ccccc1` (stereo not drawn) [Fluoxetine, reference compound], in the experiment on mice [2], the “deficit of avoidance behavior (escape latency and number of escape failures)” value is listed as “significantly reversed the deficit of avoidance behavior”.

For the compound `COc1ccc2cccc(CCNC(C)=O)c2c1` [Agomelatine, reference compound], the Emax at MT1 receptor amounted to 94 ± 7.34%; on MT2 receptor, 101 ± 4.56%. The affinity at 5‐HT2C receptor, expressed as Ki, was 640 ± 250 pM. Further, in the experiment on rats, the “immobility time in FST” value is on record as “significantly decreased the immobility time”. For the same compound, in the experiment with mice [3], the “immobility time in TST” value was “had no effect on immobility time”. Moreover, in the experiment on CUS rats, the “feeding latency in NSF test” value was “not effective”.

What is called Emax is the greatest response seen or fitted, relative to the assay's reference. For orientation: Ki means a dissociation constant, usually derived from enzyme kinetics or from competition with a known ligand.

Values taken from article PMC8111499, “GW117: A novel serotonin (5‐HT2C) receptor antagonist and melatonin (MT1/MT2) receptor agonist with potential antidepressant‐like activity in rodents” (CNS Neuroscience & Therapeutics, 2021).
